# Experimental data published in the supplement of paper PMC10307832.
# Key:
# Assay in all cases: relative viability (nuclei count vs DMSO), 5 days (fraction); higher = more cells survive
# NCI-H520 = test system: NCI-H520
# Summary of the method: (§1)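 Lung cancer cell lines in 1536-well plates were dosed by pin tool the day after seeding, either with one drug alone or with a fixed anchor-drug dose plus five library-drug doses (not always all listed) in √10 steps. After 5 days, cells were fixed and their nuclei stained in one step (final 0.05% Triton X-100, 1% formaldehyde, 1 ug/ml Hoechst), then counted on 4× images. Relative viability is the nuclei count in treated wells divided by that in vehicle wells. Values are medians of duplicate plates.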
# NCI-H1651 = test system: NCI-H1651
# Summary of the method: as §1
# NCI-H1944 = test system: NCI-H1944
# Summary of the method: as §1
# 201T = test system: 201T
# Summary of the method: as §1
# PC-3 [JPC-3] = test system: PC-3 [JPC-3]
# Summary of the method: as §1
# BEN = test system: BEN
# Summary of the method: as §1
# A-427 = test system: A-427
# Summary of the method: as §1
# NCI-H441 = test system: NCI-H441
# Summary of the method: as §1
# LCLC-97TM1 = test system: LCLC-97TM1
# Summary of the method: as §1
# NCI-H596 = test system: NCI-H596
# Summary of the method: as §1
# HCC-15 = test system: HCC-15
# Summary of the method: as §1
# NCI-H1792 = test system: NCI-H1792
# Summary of the method: as §1
# CAL-12T = test system: CAL-12T
# Summary of the method: as §1
# NCI-H2087 = test system: NCI-H2087
# Summary of the method: as §1
# NCI-H2023 = test system: NCI-H2023
# Summary of the method: as §1
# NCI-H1915 = test system: NCI-H1915
# Summary of the method: as §1
# NCI-H460 = test system: NCI-H460
# Summary of the method: as §1
# NCI-H661 = test system: NCI-H661
# Summary of the method: as §1
# NCI-H650 = test system: NCI-H650
# Summary of the method: as §1
# NCI-H1650 = test system: NCI-H1650
# Summary of the method: as §1
# NCI-H727 = test system: NCI-H727
# Summary of the method: as §1
# LC-2-ad = test system: LC-2-ad
# Summary of the method: as §1
# H3255 = test system: H3255
# Summary of the method: as §1
structure (smiles),measurement,setting,value
CC(C)Oc1cc(Nc2nc(N[C@@H](C)c3ccc(F)cn3)ncc2Cl)n[nH]1 [AZ23] + CC(=O)Nc1cccc(-n2c(=O)n(C3CC3)c(=O)c3c(Nc4ccc(I)cc4F)n(C)c(=O)c(C)c32)c1 [Trametinib] (partner 0.02 µM),relative viability,NCI-H520; first compound 0.01 µM,0.853
same,relative viability,NCI-H520; first compound 0.03162 µM,0.707
same,relative viability,NCI-H520; first compound 0.3162 µM,0.587
same,relative viability,NCI-H1651; first compound 0.01 µM,0.829
same,relative viability,NCI-H1651; first compound 0.03162 µM,0.87
same,relative viability,NCI-H1651; first compound 0.3162 µM,0.854
same,relative viability,NCI-H1944; first compound 0.01 µM,0.438
same,relative viability,NCI-H1944; first compound 0.03162 µM,0.398
same,relative viability,NCI-H1944; first compound 0.3162 µM,0.386
same,relative viability,201T; first compound 0.01 µM,0.716
same,relative viability,201T; first compound 0.03162 µM,0.731
same,relative viability,201T; first compound 0.3162 µM,0.649
same,relative viability,PC-3 [JPC-3]; first compound 0.01 µM,0.612
same,relative viability,PC-3 [JPC-3]; first compound 0.03162 µM,0.787
same,relative viability,PC-3 [JPC-3]; first compound 0.3162 µM,0.735
same,relative viability,BEN; first compound 0.01 µM,0.909
same,relative viability,BEN; first compound 0.03162 µM,1.14
same,relative viability,BEN; first compound 0.3162 µM,1.09
same,relative viability,A-427; first compound 0.01 µM,0.569
same,relative viability,A-427; first compound 0.03162 µM,0.717
same,relative viability,A-427; first compound 0.3162 µM,0.684
same,relative viability,NCI-H441; first compound 0.01 µM,0.504
same,relative viability,NCI-H441; first compound 0.03162 µM,0.433
same,relative viability,NCI-H441; first compound 0.3162 µM,0.509
same,relative viability,LCLC-97TM1; first compound 0.01 µM,0.238
same,relative viability,LCLC-97TM1; first compound 0.03162 µM,0.209
same,relative viability,LCLC-97TM1; first compound 0.3162 µM,0.189
same,relative viability,NCI-H596; first compound 0.01 µM,0.739
same,relative viability,NCI-H596; first compound 0.03162 µM,0.779
same,relative viability,NCI-H596; first compound 0.3162 µM,0.783
same,relative viability,HCC-15; first compound 0.01 µM,0.382
same,relative viability,HCC-15; first compound 0.03162 µM,0.413
same,relative viability,HCC-15; first compound 0.3162 µM,0.243
same,relative viability,NCI-H1792; first compound 0.01 µM,0.472
same,relative viability,NCI-H1792; first compound 0.03162 µM,0.347
same,relative viability,NCI-H1792; first compound 0.3162 µM,0.294
same,relative viability,CAL-12T; first compound 0.03162 µM,0.28
same,relative viability,CAL-12T; first compound 0.3162 µM,0.368
same,relative viability,NCI-H2087; first compound 0.01 µM,0.189
same,relative viability,NCI-H2087; first compound 0.03162 µM,0.196
same,relative viability,NCI-H2087; first compound 0.3162 µM,0.187
same,relative viability,NCI-H2023; first compound 0.03162 µM,0.602
same,relative viability,NCI-H2023; first compound 0.3162 µM,0.48
same,relative viability,NCI-H1915; first compound 0.01 µM,0.303
same,relative viability,NCI-H1915; first compound 0.03162 µM,0.297
same,relative viability,NCI-H1915; first compound 0.3162 µM,0.239
same,relative viability,NCI-H460; first compound 0.01 µM,0.119
same,relative viability,NCI-H460; first compound 0.03162 µM,0.128
same,relative viability,NCI-H460; first compound 0.3162 µM,0.166
same,relative viability,NCI-H661; first compound 0.01 µM,0.611
same,relative viability,NCI-H661; first compound 0.03162 µM,0.575
same,relative viability,NCI-H661; first compound 0.3162 µM,0.547
same,relative viability,NCI-H650; first compound 0.01 µM,0.955
same,relative viability,NCI-H650; first compound 0.03162 µM,0.99
same,relative viability,NCI-H650; first compound 0.3162 µM,0.987
same,relative viability,NCI-H1650; first compound 0.01 µM,0.546
same,relative viability,NCI-H1650; first compound 0.03162 µM,0.589
same,relative viability,NCI-H1650; first compound 0.3162 µM,0.659
same,relative viability,NCI-H727; first compound 0.01 µM,0.365
same,relative viability,NCI-H727; first compound 0.03162 µM,0.36
same,relative viability,NCI-H727; first compound 0.3162 µM,0.389
same,relative viability,LC-2-ad; first compound 0.01 µM,1.09
same,relative viability,LC-2-ad; first compound 0.03162 µM,0.898
same,relative viability,LC-2-ad; first compound 0.3162 µM,0.868
same,relative viability,H3255; first compound 0.01 µM,0.595
same,relative viability,H3255; first compound 0.03162 µM,0.609
same,relative viability,H3255; first compound 0.3162 µM,0.632
CC(C)Oc1cc(Nc2nc(N[C@@H](C)c3ccc(F)cn3)ncc2Cl)n[nH]1 [AZ23] + Nc1nc2[nH]cc(CCc3ccc(C(=O)N[C@@H](CCC(=O)O)C(=O)O)cc3)c2c(=O)[nH]1 [Pemetrexed] (partner 0.2 µM),relative viability,NCI-H520; first compound 0.01 µM,0.678
same,relative viability,NCI-H520; first compound 0.03162 µM,0.759
same,relative viability,NCI-H520; first compound 0.3162 µM,0.615
same,relative viability,NCI-H1651; first compound 0.01 µM,0.349
same,relative viability,NCI-H1651; first compound 0.03162 µM,0.597
same,relative viability,NCI-H1651; first compound 0.3162 µM,0.615
same,relative viability,NCI-H1944; first compound 0.01 µM,0.314
same,relative viability,NCI-H1944; first compound 0.03162 µM,0.824
same,relative viability,NCI-H1944; first compound 0.3162 µM,0.665
same,relative viability,201T; first compound 0.01 µM,0.251
same,relative viability,201T; first compound 0.03162 µM,0.348
same,relative viability,201T; first compound 0.3162 µM,0.336
same,relative viability,PC-3 [JPC-3]; first compound 0.01 µM,0.955
same,relative viability,PC-3 [JPC-3]; first compound 0.03162 µM,1.25
same,relative viability,PC-3 [JPC-3]; first compound 0.3162 µM,1.22
same,relative viability,BEN; first compound 0.01 µM,0.634
same,relative viability,BEN; first compound 0.03162 µM,0.892
same,relative viability,BEN; first compound 0.3162 µM,0.732
same,relative viability,A-427; first compound 0.01 µM,0.797
same,relative viability,A-427; first compound 0.03162 µM,1.01
same,relative viability,A-427; first compound 0.3162 µM,1.15
same,relative viability,NCI-H441; first compound 0.01 µM,0.262
same,relative viability,NCI-H441; first compound 0.03162 µM,0.242
same,relative viability,NCI-H441; first compound 0.3162 µM,0.267
same,relative viability,LCLC-97TM1; first compound 0.01 µM,0.138
same,relative viability,LCLC-97TM1; first compound 0.03162 µM,0.193
same,relative viability,LCLC-97TM1; first compound 0.3162 µM,0.166
same,relative viability,NCI-H596; first compound 0.01 µM,0.422
same,relative viability,NCI-H596; first compound 0.03162 µM,0.55
same,relative viability,NCI-H596; first compound 0.3162 µM,0.509
same,relative viability,HCC-15; first compound 0.01 µM,0.204
same,relative viability,HCC-15; first compound 0.03162 µM,0.222
same,relative viability,HCC-15; first compound 0.3162 µM,0.208
same,relative viability,NCI-H1792; first compound 0.01 µM,0.813
same,relative viability,NCI-H1792; first compound 0.03162 µM,0.912
same,relative viability,NCI-H1792; first compound 0.3162 µM,1
same,relative viability,CAL-12T; first compound 0.03162 µM,1.24
same,relative viability,CAL-12T; first compound 0.3162 µM,1.23
same,relative viability,NCI-H2087; first compound 0.01 µM,0.727
same,relative viability,NCI-H2087; first compound 0.03162 µM,0.691
same,relative viability,NCI-H2087; first compound 0.3162 µM,0.766
same,relative viability,NCI-H2023; first compound 0.03162 µM,0.268
same,relative viability,NCI-H2023; first compound 0.3162 µM,0.219
same,relative viability,NCI-H1915; first compound 0.01 µM,0.463
same,relative viability,NCI-H1915; first compound 0.03162 µM,0.485
same,relative viability,NCI-H1915; first compound 0.3162 µM,0.607
same,relative viability,NCI-H460; first compound 0.01 µM,0.0522
same,relative viability,NCI-H460; first compound 0.03162 µM,0.0661
same,relative viability,NCI-H460; first compound 0.3162 µM,0.0611
same,relative viability,NCI-H661; first compound 0.01 µM,0.864
same,relative viability,NCI-H661; first compound 0.03162 µM,0.925
same,relative viability,NCI-H661; first compound 0.3162 µM,0.927
same,relative viability,NCI-H650; first compound 0.01 µM,0.936
same,relative viability,NCI-H650; first compound 0.03162 µM,0.969
same,relative viability,NCI-H650; first compound 0.3162 µM,0.888
same,relative viability,NCI-H1650; first compound 0.01 µM,0.295
same,relative viability,NCI-H1650; first compound 0.03162 µM,0.406
same,relative viability,NCI-H1650; first compound 0.3162 µM,0.359
same,relative viability,LC-2-ad; first compound 0.01 µM,0.275
same,relative viability,LC-2-ad; first compound 0.03162 µM,0.279
same,relative viability,LC-2-ad; first compound 0.3162 µM,0.297
same,relative viability,H3255; first compound 0.01 µM,0.536
same,relative viability,H3255; first compound 0.03162 µM,0.603
same,relative viability,H3255; first compound 0.3162 µM,0.577
